# In US11198695B2, “Fused ring derivative having MGAT-2 inhibitory activity” (Shionogi & Co., Ltd., priority 2017, dated 2021):
# pIC50: −log10 of the molar value.
# Target: recombinant human MGAT2 (Homo sapiens (Human), UniProt Q3SYC2)
# Experiment: Measurement of human MGAT2 inhibitory activity
# Assay type: biochemical
# Details: read-out: IC50 (concentration exhibiting 50% enzyme inhibition), Table 52
# Outline: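 Membrane fraction of Sf9 cells expressing N-terminally Flag-tagged full-length human MGAT2, incubated 1 h at room temperature in 100 mmol/L phosphate pH 7.4 with 2 mmol/L DTT. The substrate solution held 30 μmol/L 2-oleoylglycerol and 10 μmol/L oleoyl-CoA. Diolein product was quantified by RapidFire ESI Q-TOF MS against diolein-d5 internal standard; % inhibition was set relative to with/without-enzyme controls.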
# Chain of recombinant human MGAT2 (Q3SYC2 whole entry): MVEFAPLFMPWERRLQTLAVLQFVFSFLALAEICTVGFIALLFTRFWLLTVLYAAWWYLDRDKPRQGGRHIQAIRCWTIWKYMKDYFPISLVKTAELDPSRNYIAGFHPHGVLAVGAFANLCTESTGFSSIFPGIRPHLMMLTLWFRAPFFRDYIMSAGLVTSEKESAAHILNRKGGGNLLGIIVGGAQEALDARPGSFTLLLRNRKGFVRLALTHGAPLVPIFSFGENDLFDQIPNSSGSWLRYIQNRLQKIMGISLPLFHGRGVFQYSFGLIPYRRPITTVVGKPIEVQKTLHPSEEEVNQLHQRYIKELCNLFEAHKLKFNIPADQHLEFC
row,pIC50,Compound
1,7.58,Cc1cc(C)cc(-n2nc3c(c2NC(=O)CS(C)(=O)=O)C(=O)N[C@@]2(CCc4cc(OCC(F)(F)F)ccc42)C3)c1 [Compound I-129]
2,7.92,CS(=O)(=O)CC(=O)Nc1c2c(nn1-c1ccccn1)C[C@@]1(CCc3cc(OCC(F)(F)F)ccc31)NC2=O [Compound I-104]
3,8.21,CS(=O)(=O)CC(=O)Nc1c2c(nn1CCCC(F)(F)F)C[C@]1(CCc3cc(OCC(F)(F)F)ccc31)NC2=O [Compound I-193]
4,8.55,Cc1ccc(-n2nc3c(c2NC(=O)CS(C)(=O)=O)C(=O)N[C@]2(CCc4cc(OCC(F)(F)F)ccc42)C3)nc1 [Compound I-270]
5,7.74,CS(=O)(=O)CC(=O)Nc1c2c(nn1C1CCCCC1)C[C@]1(CCc3cc(OCCCC(F)(F)F)ccc31)NC2=O [Compound I-40]
6,7.07,Cc1cnc(-n2nc3c(c2NC(=O)CS(C)(=O)=O)C(=O)N[C@@]2(CCc4cc(OCC(F)(F)F)ccc42)C3)cn1 [Compound I-264]
7,8.25,O=C(CC(F)(F)F)NCc1c2c(nn1CCC1CC1)C[C@]1(CCc3cc(OCC(F)(F)F)ccc31)NC2=O [Compound I-148]
8,8.21,O=C1N[C@@]2(CCc3cc(OCC(F)(F)F)ccc32)Cc2nn(CCC3CC3)c(C(=O)NS(=O)(=O)C(F)F)c21 [Compound I-109]
9,8.41,Cc1ccc(-n2nc3c(c2NC(=O)CS(C)(=O)=O)C(=O)N[C@@]2(CCOc4cc(OCC(F)(F)F)ccc42)C3)cc1 [Compound I-274]
10,6.98,CS(=O)(=O)CC(=O)Nc1c2c(nn1-c1cc(F)cc(F)c1)C[C@]1(CCc3cc(OCC(F)(F)F)ccc31)NC2=O [Compound I-127]
11,7.07,CS(=O)(=O)CC(=O)Nc1c2c(nn1CCC1CC1)C[C@]1(CCc3cc(N4CCC4)ccc31)NC2=O [Compound I-235]
12,7.54,O=C1N[C@@]2(CCc3cc(OCC(F)(F)F)cc(F)c32)Cc2nn(CCC3CC3)c(-c3nnn[nH]3)c21 [Compound I-278]
13,8.46,CS(=O)(=O)CC(=O)Nc1c2c(nn1-c1ccc(C#N)cn1)C[C@]1(CCOc3cc(OCC(F)(F)F)ccc31)NC2=O [Compound I-243]
14,7.96,CS(=O)(=O)CC(=O)Nc1c2c(nn1-c1ccc(C3CC3)cc1)C[C@]1(CCc3cc(OCCCC(F)(F)F)ccc31)NC2=O [Compound I-106]
15,6.42,CCCc1cccc(-n2nc3c(c2NC(=O)CS(C)(=O)=O)C(=O)N[C@@]2(CCc4cc(OCC(F)(F)F)ccc42)C3)c1 [Compound I-239]
16,6.47,CS(=O)(=O)CC(=O)Nc1c2c(nn1-c1ccc(S(C)(=O)=O)cc1)C[C@]1(CCc3cc(OCCCC(F)(F)F)ccc31)NC2=O [Compound I-43]
17,8.33,Cc1ccc(-n2nc3c(c2NC(=O)CS(C)(=O)=O)C(=O)N[C@@]2(CCc4cc(OCC(F)(F)F)ccc42)C3)nn1 [Compound I-263]
18,6.00,O=C1N[C@@]2(CCc3cc(OCC(F)(F)F)ccc32)Cc2nn(CCC3CC3)c(C(=O)Nc3ccccc3)c21 [Compound I-196]
19,6.89,O=C1N[C@@]2(CCc3cc(OCC(F)(F)F)ccc32)Cc2nn(CCC3CC3)c(CNC(=O)C3(C(F)(F)F)CCC3)c21 [Compound I-158]
20,7.68,O=C(CC(F)F)Nc1c2c(nn1CCC1CC1)C[C@]1(CCc3cc(OCCCC(F)(F)F)ccc31)NC2=O [Compound I-20]
21,7.20,COc1ccc(C(=O)Nc2c3c(nn2CCC2CC2)C[C@]2(CCc4cc(OCCCC(F)(F)F)ccc42)NC3=O)cc1 [Compound I-174]
22,7.92,CS(=O)(=O)CC(=O)Nc1c2c(nn1CCC1CC1)C[C@]1(CCc3cc(C(F)(F)F)ccc31)NC2=O [Compound I-6]
23,8.29,CS(=O)(=O)CC(=O)Nc1c2c(nn1-c1ccc(C(F)(F)F)cc1)C[C@]1(CCc3cc(OCC(F)(F)F)ccc31)NC2=O [Compound I-95]
24,6.76,Cn1cc(CC(=O)Nc2c3c(nn2CCC2CC2)C[C@]2(CCc4cc(OCCCC(F)(F)F)ccc42)NC3=O)cn1 [Compound I-30]
25,7.55,CS(=O)(=O)CC(=O)Nc1c2c(nn1CCc1ccccc1)C[C@]1(CCc3cc(OCC(F)(F)F)ccc31)NC2=O [Compound I-191]
26,7.46,O=C(Nc1c2c(nn1CCC1CC1)C[C@]1(CCc3cc(OCC(F)(F)F)ccc31)NC2=O)c1ccco1 [Compound I-220]
27,8.51,Cc1ccnc(-n2nc3c(c2NC(=O)CS(C)(=O)=O)C(=O)N[C@@]2(CCc4cc(OCC(F)(F)F)ccc42)C3)c1 [Compound I-135]

# Same assay, conditions: read-out: IC50 (concentration exhibiting 50% enzyme inhibition), Table 53
row,pIC50,Compound
1,8.15,CS(=O)(=O)CC(=O)Nc1c2c(nn1CCC1CC1)C[C@@]1(CCc3cc(OC4CC4)ccc31)NC2=O [II-98]
2,7.92,CS(=O)(=O)CC(=O)Nc1c2c(nn1C1CCCCC1)C[C@]1(CCOc3cc(OCC(F)(F)F)ccc31)NC2=O [II-15]
3,7.01,Cc1ccc(-n2nc3c(c2C(=O)NCC2(C#N)CC2)C(=O)N[C@@]2(CCOc4cc(OCC(F)(F)F)ccc42)C3)nc1 [II-231]
4,7.82,Cc1ccc(-n2nc3c(c2C(=O)NS(C)(=O)=O)C(=O)N[C@@]2(CCc4cc(OCC(F)(F)F)ccc42)C3)nc1 [II-238]
5,> 9.00,CS(=O)(=O)CC(=O)Nc1c2c(nn1-c1ccc(C(F)F)cc1)C[C@]1(CCOc3cc(OCC(F)(F)F)ccc31)NC2=O [II-298]
6,8.98,CS(=O)(=O)CC(=O)Nc1c2c(nn1CCCOC(F)F)C[C@]1(CCc3cc(CCC(F)(F)F)ccc31)NC2=O [II-285]
7,7.85,Cc1ccc(-n2nc3c(c2C(=O)NCC2(O)CC2)C(=O)N[C@@]2(CCOc4cc(OCC(F)(F)F)ccc42)C3)nc1 [II-230]
8,8.60,N#Cc1ccc(-n2nc3c(c2C(=O)NCC2(O)CCC2)C(=O)N[C@@]2(CCc4cc(OCC(F)(F)F)ccc42)C3)nc1 [II-108]
9,8.18,Cc1ccc(-n2nc3c(c2NC(=O)CS(C)(=N)=O)C(=O)NC2(C3)CN(c3ccc(C(F)(F)F)cc3)C2)nc1 (centres unmarked) [II-308]
10,7.33,CNC(=O)c1c2c(nn1-c1ccc(C#N)cn1)C[C@]1(CCc3cc(OCC(F)(F)F)ccc31)NC2=O [II-170]
11,8.64,Cc1ccc(-n2nc3c(c2C(=O)NCC2(O)CC2)C(=O)N[C@@]2(CCc4cc(OCC(F)(F)F)ccc42)C3)nc1 [II-200]
12,7.80,Cc1ccc(-n2nc3c(c2C(=O)NS(=O)(=O)C2CC2)C(=O)N[C@@]2(CCc4cc(OCC(F)(F)F)ccc42)C3)cc1F [II-226]
13,8.05,Cc1cc(-n2nc3c(c2NC(=O)CS(C)(=O)=O)C(=O)N[C@@]2(CCc4cc(OCC(F)(F)F)ccc42)C3)ccc1F [II-149]
14,8.44,Cc1ccc(-n2nc3c(c2NC(=O)CS(C)(=O)=O)C(=O)N[C@@]2(CCc4cc(C5CC5)ccc42)C3)nn1 [II-302]
15,6.68,Cc1ccc(-n2nc3c(c2NC(=O)C2(S(C)(=O)=O)CC2)C(=O)N[C@@]2(CCOc4cc(OCC(F)(F)F)ccc42)C3)nc1 [II-272]
16,7.36,O=C1N[C@]2(CCc3cc(OCC(F)(F)F)ccc32)Cc2nn(CCC3CC3)c(CNc3ccnc(O)n3)c21 [II-69]
17,7.79,NS(=O)(=O)CCNC(=O)c1c2c(nn1CCCOC(F)F)C[C@]1(CCc3cc(OCC(F)(F)F)ccc31)NC2=O [II-264]
18,7.78,Cn1c2c(c(NC(=O)CS(C)(=O)=O)c1-c1ccccc1)C(=O)N[C@@]1(CCc3cc(OCC(F)(F)F)ccc31)C2 [II-61]
19,8.72,CS(=O)(=O)CC(=O)Nc1c2c(nn1CCCC(F)(F)F)C[C@]1(CCOc3cc(OCC(F)(F)F)ccc31)NC2=O [II-65]
20,8.91,Cc1cc(-n2nc3c(c2NC(=O)CS(C)(=O)=O)C(=O)N[C@@]2(CCc4cc(OCCCC(F)(F)F)ccc42)C3)nn1C [II-268]
